Assays:
[1] = 25° C., cited from earlier work; for log K2 (stability constant for the M(Lc)2 species), Cu(II): ionic strength 0.1-0.2; for log K1 (stability constant for the MLc species), Cu(II): ionic strength 0.1-0.2, metal ion to chelator 1/1
[2] = Stability constants of competing chelators for Cu(II) (NIST / Sillen-Martell; log Kapp by Eq. 1-2); format: binding; conditions: at pH = 7.4, by Eq. 1 and 2
Text: Department of Commerce) and […]

[3] = Competition reaction between ligand (Ls), ZnCl2 and competing chelator (Lc), UV-visible; affinity constants; format: binding; conditions: Ls/ZnCl2/Lc 1/1/1 at 15 μM; solvent per ligand as in Table 3
Description: An organic solvent (CH3OH, dioxane or DMSO) was added in order to achieve good solubility of all the ligands and metal complexes in the concentrations used in these experiments.
As the concentration [MLs]=x % of C is measured on the UV-visible spectra, the concentrations [Ls]=(1−x) % of C, [MLc]=(1−x) % of C and [Lc]=x % of C can be deduced therefrom and:
In these conditions, [MLs]=[MLc]; [MLs]+[Lc]=Y, y≧50 and:
When log Ks 6, these equations are not used since the percentages of metal ion which is free in the solution or chelated by the solvent or the buffer are not negligible.

[4] = Competition reaction between ligand (Ls), CuCl2 and competing chelator (Lc), UV-visible; affinity constants
Description: An organic solvent (CH3OH, dioxane or DMSO) was added in order to achieve good solubility of all the ligands and metal complexes in the concentrations used in these experiments. Monitoring has shown that all the ligands and metal complexes examined yield results corresponding to the Beer-Lambert Law in the experimental conditions used.
Lc competing chelators were selected to provide a range of stability constants for the metal ion M presenting intervals of approximately one or two log units, as well as to make it possible for each competition experiment to quantify one of the Ls, MLs, Lcc or MLc species with a UV-vis spectrum wavelength without contaminating the three other species (FIG. 7). […] As the concentration [MLs]=x % of C is measured on the UV-visible spectra, the concentrations [Ls]=(1−x) % of C, [MLc]=(1−x) % of C and [Lc]=x % of C can be deduced therefrom and:

[5] = UV-visible spectrophotometric titration with CuCl2 (metal/ligand stoichiometry); format: binding; conditions: 15 μM ligand; Tris-HCl buffer pH 7.4/organic solvent, per ligand as in Table 3 column Solvent
Description: (§1) An organic solvent (CH3OH, dioxane or DMSO) was added in order to achieve good solubility of the ligands and metal complexes in the concentrations used in these experiments. Exact proportions of the organic solvent/buffer mixture are specified for each UV-visible characterisation of the different ligands or metal complexes.
(§2) Aliquot portions of concentrated CuCl2 or ZnCl2 solutions (M) are added to a 15 μM ligand solution so as to induce only negligible variations in volume. After each addition, changes in absorption spectra are observed immediately and are consistent between two additions, which corresponds to a rapid complexing process. The exact absorption values relating to each ligand and the copper(II) or zinc(II) complexes thereof are detailed hereinafter in the Experimental part (in the Synthesis part for ligands and hereinafter for the metal complexes).
(§3) The stoichiometry of the different ligands (L) for Cu(II) or ZN(II) have therefore been determined spectrophotometrically by metal ion titration. In this example, for an M/L ratio increasing from 0 to 1, π→π* with transition, centred at 251 nm for the free ligand, is shifted to a lower energy with a concomitant appearance of an absorption band in the visible region of the spectrum (λmax to 383 nm), which is probably the result of an MLCT transition. For greater M/L ratios, no additional change in the UV-visible absorption spectra is observed.

[6] = Determination of log D7.4 (1-octanol / Tris-HCl buffer); format: physicochemical; conditions: 1-octanol / 20 mM Tris-HCl buffer containing 150 mM NaCl (pH = 7.4) (1/1, v/v)
Description: The ligand (2.0 mg) is dissolved in 2 ml of 1-octanol then 2 ml of 20 mM Tris-HCl buffer, pH=7.4 containing 150 mM NaCl are added. After mixing in a vortex for 3 min at ambient temperature, followed by centrifugation for 5 min at 9,000 rpm, the concentration of the ligand in each phase is determined by UV-visible spectrophotometry. The 1-octanol fractions are thus redivided until reproducible values of coefficient of division of obtained. This coefficient is expressed as the decimal logarithm of [(the concentration of ligand contained in the 1-octanol phase)/(the concentration of ligand contained in the buffered aqueous phase)]=log D7.4. Measurements were taken three times.

[7] = UV-visible spectrophotometric titration with ZnCl2 (metal/ligand stoichiometry); format: binding; conditions: 15 μM ligand; Tris-HCl buffer pH 7.4/organic solvent, per ligand as in Table 3 column Solvent
Description: as §1, §2, §3

Aβ1-42 = target: T1, Aβ1-42 (Homo sapiens, UniProt P05067); assay: Inhibition of the precipitation of Aβ1-42 by the addition of ligand (Micro BCA assay of soluble/aggregated peptide); format: biochemical; conditions: Aβ1-42 5 μM, pH 7.4; for CuCl2 % soluble Aβ: 20 μM CuCl2, 1 h 37° C. then 1 h with 200 μM ligand; for FeCl3 % soluble Aβ: 20 μM FeCl3, 1 h 37° C. then 1 h with 200 μM ligand; for ZnCl2 % soluble Aβ: 20 μM ZnCl2, 1 h 37° C. then 1 h with 200 μM ligand; for without metal % soluble Aβ: no metal salt, 1 h 37° C. then 1 h with 200 μM ligand
T1 construct: The β-amyloid peptide Aβ1-42 (Aβ1-42) was synthesised, purified (to a purity greater than 95%); made in house; host or cells: chemical peptide synthesis (no expression host)
T1 sequence (P05067 672-713): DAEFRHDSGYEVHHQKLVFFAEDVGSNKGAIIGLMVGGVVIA
Description: After a further hour of incubation, the reaction mixture is centrifuged.
Before use, the water [of Milli-Q Millipore quality] and all buffer solutions were treated on Chelex-100 resin (Biorad) (5 mg/ml) and filtered through 0.2 μm filters (Whatman) to remove potential traces of metal ions or particles.
Working solutions of the peptide were prepared by solubilising 1 mg of lyophilised peptide in 500 μl of water and 500 μl of an aqueous NaOH solution pH=12.0, while stirring in a Thermomixer Comfort (Eppendorf). The peptide preparations are subsequently centrifuged for 10 minutes at 9,000 rpm and the supernatant is used as an “Aβ stock” solution. The concentration of peptide in the “Aβ stock” is determined immediately by colorimetric assay using a Micro BCA Protein Assays kit (Pierce) from standard ranges produced using known amounts of bovine serum albumin (BSA) then the Aβ1-42 peptide solution is aliquoted and frozen rapidly in liquid nitrogen prior to being stored at −20° C. until being used.
Salts are generated by adding one hydrochloric acid equivalent per nitrogen group equivalent of the ligand dissolved in DMSO. After evaporation of the solvent, these salts are dissolved at the desired concentration with DMSO and kept at −20° C. until they are used.
The protocol was established from works by: C. S. Atwood et al., J. Neurochem. […] The final concentrations are given. 500 μl of Aβ1-42 (5 μM is set to aggregate in 20 mM Tris-HCl buffer containing 150 mM NaCl (pH=7.4) for 1 hour at 37° C. while stirring at 1,400 rpm in the absence or presence of metal ions: CuCl2, ZnCl2 or FeCl3 (20 μM). Then 50 pi of ligand to be tested (200 μM) dissolved in DMSO are added and the samples are incubated for 1 further hour at 37° C. while stirring at 1,400 rpm. The samples without ligand also receive 50 μl of DMSO. The samples (final volume=550 μ) are subsequently centrifuged for 20 min at 9,000 rpm, and 500 μl of supernatant are removed. The tube containing the precipitation pellet then receives 450 μl of assay buffer/DMSO mixture (91/9, v/v). […] Quantification is carried out on the basis of standard BSA ranges. The amounts of Aβ1-42 actually contained in the pellet and the supernatant are obtained after a correction due to the presence of a residual portion of supernatant in the pellet-containing fraction.
For the control experiments with derivatives comprising a single quinoline residue, […] of ligand were added because complexes of type L2Cu are conventionally used in these cases.

[8] = target: T2, copper complexes of Aβ1-42 peptide (Homo sapiens, UniProt P05067); assay: Hydrogen peroxide produced by Aβ1-42 in the presence of CuCl2, ascorbate, air and ligand (Amplex Red H2O2/HRP); format: biochemical; conditions: for amount of H2O2, 0.2 μM Aβ1-42 Cu/Aβ = 2 / amount of H2O2, 0.5 μM Aβ1-42 Cu/Aβ = 0.75: ligand 1 eq/Cu(II) (0.4 μM), CuCl2 0.4 μM, ascorbate 10 μM, air
T2 construct: The β-amyloid peptide Aβ1-42 (Aβ1-42) was synthesised, purified (to a purity greater than 95%); made in house; host or cells: chemical peptide synthesis (no expression host)
T2 sequence (P05067 672-713 limits assumed, one chain of several): as the sequence (P05067 672-713) above
Description: (§4) FIG. 11: Variation in H2O2 production by copper complexes of Aβ1-42 peptide as a function of the Cu(II)/Aβ stoichiometry. Experiments are carried out for 5 minutes in a sodium phosphate buffer (pH=7.4) in the presence 0.4 μM CuCl2, 10 μM ascorbate and air with or without 0.4 μM of 3 or 7. The H2O2 released is quantified by means of an Amplex-Red H2O2/HRP Assay kit.
(§5) The final concentrations are given. The reactions were carried out in the dark in mM sodium phosphate buffer (pH=7.4). Aβ1-42 (0.2 μM) and CuCl2 (0.4 μM) were pre-incubated for 1 hour at 37° C. while stirring at 1,400 rpm in 375 μl of buffer. Then 2 μl of a solution of ligand to be investigated (0.2; 0.4 or 0.8 μM) in DMSO were added. After incubation for a further hour, 2 μl of an aqueous sodium ascorbate solution (10 μM) were added and incubation was continued for 5 min while stirring. The amount of H2O2 produced is then quantified using an Amplex Red H2O2/HRP Assay Kit (Molecular Probes) while adding a volume of assay reagent to the samples, then incubating them for 1 hour at 37° C. while stirring at 500 rpm. […] Quantification is carried out on the basis of standard curves obtained with known amounts of H2O2.
(§6) The figures in the tables correspond to the amount of H2O2 (expressed in nanomoles) added using an Amplex Red H2O2/HRP Assay kit.

[9] = as above; format: biochemical; conditions: ligand 1 eq/Cu(II) (0.4 μM); CuCl2 0.4 μM, ascorbate 10 μM, air
Description: as §4, §5, §6

[10] = Number of ZnCl2 equivalents for the ligand to be entirely in the form of Zn(II) complex; format: binding; conditions: competition with the tris buffer and the DMSO
[11] = Stability constants of competing chelators for Zn(II) (NIST / Sillen-Martell; log Kapp by Eq. 1-2); conditions: for log Kapp of comparison chelators for Zn(II): comparison chelators of b563
Description: log Kapp=log K-log α (Eq. 1)
α=[H^+]^n/(Ka1×Ka2×Ka3× . . . Kan)+[H^+]^n-1/(Ka1×Ka2×Ka3× . . . Kan-1)+ . . . +[H^+]/Ka1+1 (Eq. 2)

[12] = Ls/CuCl2/Lc 1/1/1 at 15 μM, solvent per ligand as in Table 3
[13] = mixture of Ls (15 μM, 1 equivalent) and CuCl2 (1/1, mol/mol)

SMILES | log K2 (stability constant for the M(Lc)2 species), Cu(II) [1] | log K1 app, Cu(II) [2] | percentage of ZnLs species at equilibrium, competing ligand EDTA [3] [%] | percentage of the CuLs species at equilibrium, competing ligand EDTA [4, 12] [%] | Complex observed by titration with Cu^II (observed L/Cu(II) stoichiometry) [5] | Complex observed by titration with Zn^II (observed L/Zn(II) stoichiometry) [7] | CuCl2 % soluble Aβ (Aβ1-42) [%] | FeCl3 % soluble Aβ (Aβ1-42) [%] | ZnCl2 % soluble Aβ (Aβ1-42) [%] | without metal % soluble Aβ (Aβ1-42) [%] | amount of H2O2, 0.2 μM Aβ1-42 Cu/Aβ = 2 [8] [nmol] | amount of H2O2, 0.5 μM Aβ1-42 Cu/Aβ = 0.75 [8] [nmol] | amount of H2O2, without Aβ1-42 [9] [nmol] | also measured
NCCN [EDA, ethylenediamine] | 9.1 | 7.8 |  |  |  |  |  |  |  |  |  |  |  | 
Oc1ccc(Cl)c2ccc(CCc3ccc4c(Cl)ccc(O)c4n3)nc12 [Compound 8, 2,2′-(1.2-Ethanediyl)-bis(5-chloro-8-hydroxyquinoline 8)] |  |  | 30 | 40 | LCu^II(1/1) | LZn^II(1/1) | 36 | 41 | 58 | 59 | 0.89 ± 0.09 | 0.64 | 0.66 | number of Lc equivalents making it possible to form 50% of CuLs, Lc = EDTA [4, 13]: 0.65 eq; log D7.4 [6]: 4.2 ± 0.1
c1cnc2c(c1)ccc1cccnc12 [1,10-phenanthroline] |  |  |  |  |  |  |  |  |  |  |  |  |  | number of ZnCl2 equivalent for 15 μM of ligand to be entirely in the form of Zn(II) complex [10]: 50 eq ZnCl2; log Kapp of comparison chelators for Zn(II) [11]: 6.3
c1ccc(-c2ccccn2)nc1 [biPy, 2,2′-bipyridine] | 5.5 | 8.1 |  |  |  |  |  |  |  |  |  |  |  | number of ZnCl2 equivalent for 15 μM of ligand to be entirely in the form of Zn(II) complex [10]: 250 eq ZnCl2; log Kapp of comparison chelators for Zn(II) [11]: ≈ 5; log K1 (stability constant for the MLc species), Cu(II) [1]: 8.1
O=C(O)CN(CCO)CC(=O)O [HIDA, N-(2-hydroethyl)iminodiacetic acid] |  | 10.5 |  |  |  |  |  |  |  |  |  |  |  | log K1 (stability constant for the MLc species), Cu(II) [1]: 11.8
Oc1c(I)cc(Cl)c2ccc(CCc3ccc4c(Cl)cc(I)c(O)c4n3)nc12 [Compound 9, 2,2′-(1,2-Ethanediyl)-bis(5-chloro-7-iodo-8-hydroxyquinoline)] |  |  | 65 | 60 | LCu^II(1/1) | LZn^II(1/1) | 19 | 38 | 47 | 36 | 0.82 ± 0.08 | 0.82 | 0.66 | percentage of ZnLs species at equilibrium, competing ligand NTA [3]: 100%; percentage of ZnLs species at equilibrium, competing ligand Trien [3]: 100%; percentage of the CuLs species at equilibrium, competing ligand Dien [4, 12]: 100%; percentage of the CuLs species at equilibrium, competing ligand Tetren [4, 12]: 0%; percentage of the CuLs species at equilibrium, competing ligand Trien [4, 12]: 45%; number of Lc equivalents making it possible to form 50% of CuLs, Lc = Trien [4, 13]: 0.75 eq; logD at 3 min [6]: 5.6 ± 0.5
Oc1cccc2ccc(CCc3ccc4cccc(O)c4n3)nc12 [Compound 7, 2,2′-(1,2-Ethanediyl)-bis(8-hydroxyquinoline)] |  |  | 55 | 55 | LCu^II(1/1) | LZn^II(1/1) | 35 | 40 | 60 | 59 | 0.89 ± 0.07 | 0.68 | 0.75 | number of Lc equivalents making it possible to form 50% of CuLs, Lc = EDTA [4, 13]: 1.1 eq; logD at 3 min [6]: 3.5 ± 0.1; H2O2 production as a function of the Cu/Aβ1-42 ratio ([8]; FIG. 11, 1 equivalent of ligand per Cu(II) (0.4 μM), Aβ1-42 0.2 to 0.53 μM): virtually inhibit H2O2 production
O=C(O)CN(CCOCCOCCN(CC(=O)O)CC(=O)O)CC(=O)O [EGTA, ethylenebis(oxyethylenenitrilo)-tetraacetic acid] |  |  |  |  |  |  |  |  |  |  |  |  |  | log K1 app, Zn(II) ([11]; at pH = 7.4, by Eq. 1 and 2): 9.4
NCCNCCN [Dien, diethylenetriamine] | 5.0 | 11.8 |  |  |  |  |  |  |  |  |  |  |  | 

— US20120277265A1, “NOVEL POLYQUINOLINE DERIVATIVES AND THE THERAPEUTIC USE THEREOF” (CENTRE NATIONAL DE LA RECHERCHE SCIENTIFIQUE (C.N.R.S.), priority 2005, published 2012)
